How the values were obtained:
[1] = tested on: middle cerebral artery occlusion (MCAo); assay: transient MCAo in SD rats, neurological scores; assay type: in vivo, Sprague-Dawley rat; design: key: summed neurological score, 0 to 27
[2] = tested on: middle cerebral artery occlusion (MCAo); assay: transient MCAo in SD rats, adhesive removal test (ART); assay type: in vivo, Sprague-Dawley rat; design: unit not given here; details: peptide given 4 h after MCAo onset
zD17-JNK3 interaction = zD17-JNK3 interaction (Rattus norvegicus, UniProt P49187); assay: co-immunoprecipitation of zD17 with JNK3 in cortical neuronal cultures; assay type: cell-based; design: diminished the co-immunoprecipitation of zD17 with JNK3; endogenous in cells; host or cells: primary cortical neurons of embryonic (E18-19) Wistar rat
Procedure: All animal experiments were approved by the Animal Care Committee of the University of British Columbia. Primary cortical cultures were prepared from Wistar rat (UBC Animal Care Centre, Vancouver, BC, Canada) brains at embryonic days 18-19. Cultures were maintained in Neurobasal medium supplemented with B27 and 0.5 mM glutamax (Invitrogen™) as described previously (Yang et al., 2009).
The protocols for protein extraction have been described previously (Yang et al., 2009). For co-immunoprecipitation, cultured cells were washed with ice-cold PBS followed by incubation with 0.5 ml Gentle Lysis Buffer (GLB) containing 25 mM Tris-HCl (pH 7.4), 2 mM EDTA, 1 mM EGTA, 10 mM NaCl, 0.5% Triton X-100 and 10% Glycerol supplemented with the Complete Protease Inhibitor Tablets (Roche Applied Science™, Indianapolis, Ind., USA) and 1 mM PMSF. Total protein concentration was determined with the BioRad™ Protein Assay kit. Lysates were first precleaned by incubating with Protein A-Sepharose beads (Roche Applied Science™) for 1 h at 4° C., followed by incubation with indicated antibodies (>16 h at 4° C.) and protein A Sepharose bead (2 h at 4° C.). Lysates of rat brain tissues were precleaned with IgG and protein A-beads. Immunoprecipitates were washed three times with GLB buffer; boiled in 2× loading buffer with 1 mM dithiothreitol (DTT) for 3 min; and analyzed with SDS-PAGE as described previously (Yang et al., 2009). The relative intensities of the bands on immunoblots were analyzed and quantified using Image J™ (NIH).

JNK2 = target: T1, JNK2 (Rattus norvegicus, UniProt P49186); assay: kinase assay (KA) on JNK2 immunoprecipitated from cell lysates; assay type: cell-based; details: for JNK2 activity normalized to 0 h: NMDA + NIMoE
T1 construct: JNK is immunoprecipitated from the cell lysate; endogenous in cells; host or cells: rat primary neuronal cultures; JNK2 immunoprecipitated from lysate
Procedure: JNK activity was measured with an in vitro kinase assay as described elsewhere (see, for e.g.: Khatlani et al., 2007). Briefly, cell lysates were prepared and JNK was immunoprecipitated with specific antibodies. The immnoprecipitates were then resuspended in 1× kinase buffer (Cell Signaling Technology™) supplemented with 200 μM ATP and 250 μg/ml GST-c-jun (1-89), and incubated at 30° C. for 30 min. Reactions were terminated by the addition of SDS-PAGE sample buffer. Phosphorylated c-jun was resolved by SDS-PAGE and detected with anti-p-c-jun.

c-jun = assay: NMDA-induced c-jun phosphorylation in neurons; assay type: cell-based, rat; details: neuronal cultures
Bax and Cyt.c = assay: NMDA-induced translocation of Bax and Cyt.c (mitochondria fractionation); assay type: cell-based, rat; details: neuronal cultures
Procedure: Cultured neurons were lysed on ice for 10 min in TEEN-SKM buffer containing 20 mM Tris-HCl (pH7.5), 10 mM KCl, 1.5 mM MgCl2, 1 mM EGTA, 1 mM EDTA, 1 mM DTT supplemented with the Complete Protease Inhibitor tablets. The lysates were homogenized with a 28^1/2G syringe for a total of 8 times on ice, followed by centrifugation twice at 700 g for 10 min at 4° C. The supernatant was then centrifuged at 10,000 g for 30 min at 4° C. to enrich mitochondria in the pellet. The cytosolic fraction was collected from the supernatant after further centrifugation at 100,000 g for 1 h at 4° C. 1× and 4×LB were added to the mitochondrial and cytosolic fractions, respectively. Equivalent amounts of samples were resolved by SDS-PAGE and blotted with antibodies against Cytochrome c and Bax.

[3] = peptide given 4 h after MCAo onset, day-1
[4] = peptide given 4 h after MCAo onset, day-3
[5] = peptide given 4 h after MCAo onset, day-7
[6] = peptide given 4 h after MCAo onset, day-14

Chain of zD17-JNK3 interaction (P49187 whole entry): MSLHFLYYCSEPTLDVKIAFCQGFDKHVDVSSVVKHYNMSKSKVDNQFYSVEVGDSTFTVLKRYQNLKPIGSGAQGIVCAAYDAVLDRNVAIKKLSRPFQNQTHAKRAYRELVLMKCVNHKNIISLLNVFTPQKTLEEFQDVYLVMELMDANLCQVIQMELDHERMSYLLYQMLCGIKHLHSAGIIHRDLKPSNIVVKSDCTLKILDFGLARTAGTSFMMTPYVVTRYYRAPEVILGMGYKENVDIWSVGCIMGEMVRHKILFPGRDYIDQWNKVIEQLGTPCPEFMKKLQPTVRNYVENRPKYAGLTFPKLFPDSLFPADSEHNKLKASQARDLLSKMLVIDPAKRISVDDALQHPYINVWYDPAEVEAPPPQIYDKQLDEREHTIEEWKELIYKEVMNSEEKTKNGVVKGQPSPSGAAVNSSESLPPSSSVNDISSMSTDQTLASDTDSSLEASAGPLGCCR

| Sequence | neurological scores ([1]; 22 h after onset of MCAo, scrambled control peptide group) | neurological scores [1, 3] | neurological scores [1, 4] | neurological scores [1, 5] | neurological scores [1, 6] | ART ([2]; day-1) | ART ([2]; day-3) | ART ([2]; day-7) | ART ([2]; day-14) | enhancement of the zD17-JNK3 interaction induced by NMDA/excitotoxicity (zD17-JNK3 interaction) | JNK2 activity normalized to 0 h (JNK2; 0.5 h) [%] | JNK2 activity normalized to 0 h (JNK2; 1 h) [%] | enhancement of JNK2 activity (JNK2; NMDA, neuronal cultures) | NMDA-induced c-jun phosphorylation (c-jun) | NMDA-induced translocation of Bax and Cyt.c (Bax and Cyt.c) | zD17-JNK3 interaction (co-immunoprecipitation), baseline (zD17-JNK3 interaction; no NMDA) | neurological scores ([1]; 22 h after onset of MCAo, injection +2 h) | neurological scores ([1]; 22 h after onset of MCAo, injection +4 h) | neurological scores ([1]; 22 h after onset of MCAo, injection −0.5 h, scale 0 to 27) |
| --- | --- | --- | --- | --- | --- | --- | --- | --- | --- | --- | --- | --- | --- | --- | --- | --- | --- | --- | --- |
| HRYRWLTDLLSMVTTPAAPM (NIMoEscr scrambled NIMoE) [negative control peptide resulting from a scrambled NIMoE, reference compound] | 18.60±1.24 | 19.25±0.80 | 13.63±1.03 | 7.13±0.58 | 4.38±0.50 | 12.63±3.14 | 34.13±6.88 | 59.13±5.67 | 81.88±4.44 | did not selectively block enhancement |  |  |  |  |  |  |  |  |  |
| MTPLMWAAYRTHSVDPTRLL (listed as Homo sapiens) [NIMoE, peptide comprising motif-E of zD17, fused to the cell-membrane transduction domain of HIV-1 Tat for cell experiments] |  |  |  |  |  |  |  |  |  | selectively blocked the enhancement | 103.7±5.0 | 90.9±10.9 | eliminated the enhancement | able to prevent | inhibited | no effect |  |  |  |
| WAAYRTHSVD (listed as Homo sapiens) [NIMoEsh, shorter 10mer of NIMoE, primarily the loop region of motif-E (zD17 196-205)] |  | 11.43±1.96 | 5.86±1.14 | 1.71±0.47 | 0.85±0.34 | 52.57±6.82 | 73.86±9.63 | 94.86±7.33 | 101.43±3.35 |  |  |  |  | able to prevent | inhibited |  | 8.50±0.75 | 11.20±1.49 | 8.00±0.72 |
